# Data: PubChem BioAssay (NCI)
#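 Compound exposure: 48 hours, 5 concentrations, 96-well plates. Definition used: TGI = concentration required for complete inhibition of growth.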
# What was measured:
# Assay in all cases: NCI-60 cell line screen, 48 h
# SF-539 CNS = tested on: SF-539 CNS
# UACC-257 melanoma = tested on: UACC-257 melanoma
# UACC-62 melanoma = tested on: UACC-62 melanoma
# NCI-H226 lung = tested on: NCI-H226 lung
# SF-268 CNS = tested on: SF-268 CNS
# ACHN renal = tested on: ACHN renal
# MDA-MB-231 breast = tested on: MDA-MB-231 breast
# SK-MEL-2 melanoma = tested on: SK-MEL-2 melanoma
# K-562 leukemia = tested on: K-562 leukemia
# HT29 colon = tested on: HT29 colon
compound,measurement,setting,value
CC1(C)OCC(C2OC(C)(C)OC2[C@H]2O[C@@]3(O)[C@H]4[C@H](C=CC[C@@H]42)[C@@H](OCc2ccccc2)[C@H](OCc2ccccc2)[C@H]3OCc2ccccc2)O1 (stereo not given in full),TGI,SF-539 CNS,> 100 µM
same,TGI,UACC-257 melanoma,> 100 µM
same,TGI,UACC-62 melanoma,> 100 µM
same,TGI,NCI-H226 lung,> 100 µM
same,TGI,SF-268 CNS,> 100 µM
same,TGI,ACHN renal,> 100 µM
same,TGI,MDA-MB-231 breast,> 100 µM
same,TGI,SK-MEL-2 melanoma,98.5 µM
same,TGI,K-562 leukemia,> 100 µM
same,TGI,HT29 colon,71.3 µM
CC1=NN2C(=N)/C(=C/c3ccc(F)cc3)C(=O)N=C2S1,TGI,SF-539 CNS,> 100 µM
same,TGI,UACC-257 melanoma,> 100 µM
same,TGI,UACC-62 melanoma,> 100 µM
same,TGI,NCI-H226 lung,> 100 µM
same,TGI,SF-268 CNS,> 100 µM
same,TGI,ACHN renal,> 100 µM
same,TGI,MDA-MB-231 breast,> 100 µM
same,TGI,SK-MEL-2 melanoma,> 100 µM
same,TGI,K-562 leukemia,> 100 µM
same,TGI,HT29 colon,> 100 µM
O=C1C=CC(=O)c2c(O)c(N3CCC[C@@H]3CO)c(Cl)c(O)c21,TGI,SF-539 CNS,3.42 µM
same,TGI,UACC-257 melanoma,3.28 µM
same,TGI,UACC-62 melanoma,2.96 µM
same,TGI,NCI-H226 lung,3.16 µM
same,TGI,SF-268 CNS,1.74 µM
same,TGI,ACHN renal,2.96 µM
same,TGI,MDA-MB-231 breast,4.03 µM
same,TGI,SK-MEL-2 melanoma,3.15 µM
same,TGI,K-562 leukemia,2.22 µM
same,TGI,HT29 colon,4.9 µM
CC(=O)Oc1ccn2nc(C)c(Br)c2c1,TGI,SF-539 CNS,> 100 µM
same,TGI,UACC-257 melanoma,99.5 µM
same,TGI,UACC-62 melanoma,> 100 µM
same,TGI,NCI-H226 lung,> 100 µM
same,TGI,SF-268 CNS,> 100 µM
same,TGI,ACHN renal,> 100 µM
same,TGI,MDA-MB-231 breast,> 100 µM
same,TGI,SK-MEL-2 melanoma,> 100 µM
same,TGI,K-562 leukemia,> 100 µM
same,TGI,HT29 colon,> 100 µM
C=C1[C@@H]2CCC3[C@]4(C)C(CC[C@@]5(C)C(=O)O[C@H](O)[C@@H]45)[C@H](O)[C@]3(C2)[C@H]1OC1OC(CO)C(O)C(O)C1O (stereo not given in full),TGI,SF-539 CNS,> 50 µM
same,TGI,UACC-257 melanoma,> 50 µM
same,TGI,UACC-62 melanoma,> 50 µM
same,TGI,NCI-H226 lung,> 50 µM
same,TGI,SF-268 CNS,> 50 µM
same,TGI,ACHN renal,> 50 µM
same,TGI,MDA-MB-231 breast,> 50 µM
same,TGI,SK-MEL-2 melanoma,> 50 µM
same,TGI,K-562 leukemia,> 50 µM
same,TGI,HT29 colon,> 50 µM
CC(C)(C)/C(O)=C\c1nc2cc(F)c(F)cc2[nH]c1=O,TGI,SF-539 CNS,> 100 µM
same,TGI,UACC-257 melanoma,> 100 µM
same,TGI,UACC-62 melanoma,> 100 µM
same,TGI,NCI-H226 lung,> 100 µM
same,TGI,SF-268 CNS,> 100 µM
same,TGI,ACHN renal,> 100 µM
same,TGI,MDA-MB-231 breast,71.7 µM
same,TGI,SK-MEL-2 melanoma,> 100 µM
same,TGI,K-562 leukemia,> 100 µM
same,TGI,HT29 colon,> 100 µM
CCC1([N+](=O)[O-])CN(N=O)C1,TGI,SF-539 CNS,> 100 µM
same,TGI,UACC-257 melanoma,> 100 µM
same,TGI,UACC-62 melanoma,> 100 µM
same,TGI,NCI-H226 lung,> 100 µM
same,TGI,SF-268 CNS,> 100 µM
same,TGI,ACHN renal,> 100 µM
same,TGI,MDA-MB-231 breast,> 100 µM
same,TGI,SK-MEL-2 melanoma,> 100 µM
same,TGI,K-562 leukemia,> 100 µM
same,TGI,HT29 colon,> 100 µM
O=C(c1ccco1)N(C(=O)N1CCC(c2ccccc2)CC1)c1ccccc1,TGI,SF-539 CNS,> 100 µM
same,TGI,UACC-257 melanoma,> 100 µM
same,TGI,UACC-62 melanoma,> 100 µM
same,TGI,NCI-H226 lung,> 100 µM
same,TGI,SF-268 CNS,> 100 µM
same,TGI,ACHN renal,> 100 µM
same,TGI,MDA-MB-231 breast,> 100 µM
same,TGI,SK-MEL-2 melanoma,> 100 µM
same,TGI,K-562 leukemia,> 100 µM
same,TGI,HT29 colon,> 100 µM
CCOC(=O)C(NC(=O)c1cccc(Cl)c1)(Nc1cccc(C)c1)C(F)(F)F (stereo not given),TGI,SF-539 CNS,32.7 µM
same,TGI,UACC-257 melanoma,71.5 µM
same,TGI,UACC-62 melanoma,28.5 µM
same,TGI,NCI-H226 lung,30.7 µM
same,TGI,SF-268 CNS,58.9 µM
same,TGI,ACHN renal,29.8 µM
same,TGI,MDA-MB-231 breast,41.6 µM
same,TGI,SK-MEL-2 melanoma,31.8 µM
same,TGI,K-562 leukemia,> 100 µM
same,TGI,HT29 colon,27.8 µM
Clc1ccc(/C(=C/c2ccccc2)Cn2ccnc2)cc1,TGI,SF-539 CNS,80.9 µM
same,TGI,UACC-257 melanoma,> 100 µM
same,TGI,UACC-62 melanoma,> 100 µM
same,TGI,NCI-H226 lung,> 100 µM
same,TGI,SF-268 CNS,> 100 µM
same,TGI,ACHN renal,> 100 µM
same,TGI,MDA-MB-231 breast,> 100 µM
same,TGI,SK-MEL-2 melanoma,40.8 µM
same,TGI,K-562 leukemia,> 100 µM
same,TGI,HT29 colon,> 100 µM
CCC1(CC)C(=O)N(C(=O)c2cc(OC)c(OC)c(OC)c2)N(C(=O)c2cc(OC)c(OC)c(OC)c2)C1=O,TGI,SF-539 CNS,> 50 µM
same,TGI,UACC-257 melanoma,> 50 µM
same,TGI,UACC-62 melanoma,> 50 µM
same,TGI,NCI-H226 lung,> 50 µM
same,TGI,SF-268 CNS,> 50 µM
same,TGI,ACHN renal,> 50 µM
same,TGI,MDA-MB-231 breast,> 50 µM
same,TGI,SK-MEL-2 melanoma,> 50 µM
same,TGI,K-562 leukemia,> 50 µM
same,TGI,HT29 colon,> 50 µM
Cc1cccc2c1CC(Cc1ccccc1C(=O)O)C2=O (stereo not given),TGI,SF-539 CNS,> 100 µM
same,TGI,UACC-257 melanoma,> 100 µM
same,TGI,UACC-62 melanoma,> 100 µM
same,TGI,NCI-H226 lung,> 100 µM
same,TGI,SF-268 CNS,> 100 µM
same,TGI,ACHN renal,> 100 µM
same,TGI,MDA-MB-231 breast,> 100 µM
same,TGI,SK-MEL-2 melanoma,> 100 µM
same,TGI,K-562 leukemia,> 100 µM
same,TGI,HT29 colon,> 100 µM
NC(=O)NN=C1Cc2ccccc2C1,TGI,SF-539 CNS,> 100 µM
same,TGI,UACC-257 melanoma,> 100 µM
same,TGI,UACC-62 melanoma,> 100 µM
same,TGI,NCI-H226 lung,> 100 µM
same,TGI,SF-268 CNS,> 100 µM
same,TGI,ACHN renal,> 100 µM
same,TGI,MDA-MB-231 breast,> 100 µM
same,TGI,SK-MEL-2 melanoma,> 100 µM
same,TGI,K-562 leukemia,> 100 µM
same,TGI,HT29 colon,> 100 µM
CC(=N/NC(=S)N(C)C)/C(=N\NC(=S)N(C)C)c1ccccc1,TGI,SF-539 CNS,25.8 µM
same,TGI,UACC-257 melanoma,4.19 µM
same,TGI,UACC-62 melanoma,4.44 µM
same,TGI,NCI-H226 lung,3.13 µM
same,TGI,SF-268 CNS,4.84 µM
same,TGI,ACHN renal,3.26 µM
same,TGI,MDA-MB-231 breast,> 23.8 µM
same,TGI,SK-MEL-2 melanoma,4.69 µM
same,TGI,K-562 leukemia,> 100 µM
same,TGI,HT29 colon,9.46 µM
N#C/C(C(=O)NCc1ccccc1)=C(/N)N1CCCC1,TGI,SF-539 CNS,> 100 µM
same,TGI,UACC-257 melanoma,> 100 µM
same,TGI,UACC-62 melanoma,> 100 µM
same,TGI,NCI-H226 lung,> 100 µM
same,TGI,SF-268 CNS,> 100 µM
same,TGI,ACHN renal,> 100 µM
same,TGI,MDA-MB-231 breast,> 100 µM
same,TGI,SK-MEL-2 melanoma,> 100 µM
same,TGI,K-562 leukemia,> 100 µM
same,TGI,HT29 colon,> 100 µM
CS(=O)(=O)Nc1ccc2ccccc2c1,TGI,SF-539 CNS,> 100 µM
same,TGI,UACC-257 melanoma,> 100 µM
same,TGI,UACC-62 melanoma,> 100 µM
same,TGI,NCI-H226 lung,> 100 µM
same,TGI,SF-268 CNS,> 100 µM
same,TGI,ACHN renal,> 100 µM
same,TGI,MDA-MB-231 breast,> 100 µM
same,TGI,SK-MEL-2 melanoma,> 100 µM
same,TGI,K-562 leukemia,> 100 µM
same,TGI,HT29 colon,> 100 µM
COc1cc2c(cc1OCc1ccccc1)NC(=O)[C@@H]1CCCN1C2=O,TGI,SF-539 CNS,> 100 µM
same,TGI,UACC-257 melanoma,> 100 µM
same,TGI,UACC-62 melanoma,> 100 µM
same,TGI,NCI-H226 lung,> 100 µM
same,TGI,SF-268 CNS,> 100 µM
same,TGI,ACHN renal,> 100 µM
same,TGI,MDA-MB-231 breast,> 100 µM
same,TGI,SK-MEL-2 melanoma,> 100 µM
same,TGI,K-562 leukemia,> 100 µM
same,TGI,HT29 colon,> 100 µM
CC(C)=CCC[C@@H](C)C1=C(Nc2ccccc2F)C(O)=C(C)C(=O)C1=O,TGI,SF-539 CNS,59.8 µM
same,TGI,UACC-257 melanoma,> 100 µM
same,TGI,UACC-62 melanoma,22.6 µM
same,TGI,NCI-H226 lung,24 µM
same,TGI,SF-268 CNS,> 100 µM
same,TGI,ACHN renal,14.3 µM
same,TGI,MDA-MB-231 breast,> 100 µM
same,TGI,SK-MEL-2 melanoma,42.1 µM
same,TGI,K-562 leukemia,> 100 µM
same,TGI,HT29 colon,24.3 µM
O=C(NC(C(F)(F)F)(C(F)(F)F)P(=O)(Cc1ccccc1)Cc1ccccc1)C(C(F)(F)F)C(F)(F)F,TGI,SF-539 CNS,43.6 µM
same,TGI,UACC-257 melanoma,46.5 µM
same,TGI,UACC-62 melanoma,62.4 µM
same,TGI,NCI-H226 lung,32.4 µM
same,TGI,SF-268 CNS,59.4 µM
same,TGI,ACHN renal,42.7 µM
same,TGI,MDA-MB-231 breast,38.8 µM
same,TGI,SK-MEL-2 melanoma,59.1 µM
same,TGI,K-562 leukemia,> 100 µM
same,TGI,HT29 colon,45.4 µM
Cn1c(=O)cc(NNc2ccc(Cl)c(Cl)c2)[nH]c1=O,TGI,SF-539 CNS,39.7 µM
same,TGI,UACC-257 melanoma,28.6 µM
same,TGI,UACC-62 melanoma,16.8 µM
same,TGI,NCI-H226 lung,55.9 µM
same,TGI,SF-268 CNS,75.9 µM
same,TGI,ACHN renal,19.9 µM
same,TGI,MDA-MB-231 breast,23.9 µM
same,TGI,SK-MEL-2 melanoma,33.6 µM
same,TGI,K-562 leukemia,23.1 µM
same,TGI,HT29 colon,40.9 µM
COc1ccc(C2C=C(c3ccc(C)cc3)N(c3ccc(OC)cc3[N+](=O)[O-])C3C(=O)OC(=O)C23)c(OC)c1 (stereo not given),TGI,SF-539 CNS,53.2 µM
same,TGI,UACC-257 melanoma,> 100 µM
same,TGI,UACC-62 melanoma,> 100 µM
same,TGI,NCI-H226 lung,> 100 µM
same,TGI,SF-268 CNS,> 100 µM
same,TGI,ACHN renal,37.3 µM
same,TGI,MDA-MB-231 breast,> 100 µM
same,TGI,SK-MEL-2 melanoma,> 100 µM
same,TGI,K-562 leukemia,> 100 µM
same,TGI,HT29 colon,86.4 µM
CSc1ncc2c(n1)-c1ccccc1OC2NC1CC1 (stereo not given),TGI,SF-539 CNS,> 100 µM
same,TGI,UACC-257 melanoma,> 100 µM
same,TGI,UACC-62 melanoma,> 100 µM
same,TGI,NCI-H226 lung,> 100 µM
same,TGI,SF-268 CNS,> 100 µM
same,TGI,ACHN renal,> 100 µM
same,TGI,MDA-MB-231 breast,> 100 µM
same,TGI,SK-MEL-2 melanoma,> 100 µM
same,TGI,K-562 leukemia,> 100 µM
same,TGI,HT29 colon,> 100 µM
